{"source": "PubChem BioAssay (NCI)", "assay_in_all_cases": "NCI-60 cell line screen, 48 h", "key": {"SNB-19 CNS": {"system": "SNB-19 CNS"}, "CAKI-1 renal": {"system": "CAKI-1 renal"}, "MDA-MB-435": {"system": "MDA-MB-435"}, "RPMI-8226 leukemia": {"system": "RPMI-8226 leukemia"}, "NCI-H23 lung": {"system": "NCI-H23 lung"}, "SK-OV-3 ovarian": {"system": "SK-OV-3 ovarian"}, "SK-MEL-5 melanoma": {"system": "SK-MEL-5 melanoma"}, "SNB-75 CNS": {"system": "SNB-75 CNS"}, "NCI/ADR-RES ovarian": {"system": "NCI/ADR-RES ovarian"}, "SF-268 CNS": {"system": "SF-268 CNS"}, "NCI-H226 lung": {"system": "NCI-H226 lung"}, "M14 melanoma": {"system": "M14 melanoma"}, "A549 NSCLC": {"system": "A549 NSCLC"}, "SW-620 colon": {"system": "SW-620 colon"}, "NCI-H460 lung": {"system": "NCI-H460 lung"}, "OVCAR-8 ovarian": {"system": "OVCAR-8 ovarian"}, "NCI-H522 lung": {"system": "NCI-H522 lung"}, "HT29 colon": {"system": "HT29 colon"}, "TK-10 renal": {"system": "TK-10 renal"}, "HCT-116 colon": {"system": "HCT-116 colon"}, "CCRF-CEM leukemia": {"system": "CCRF-CEM leukemia"}, "KM12 colon": {"system": "KM12 colon"}, "SR leukemia": {"system": "SR leukemia"}, "ACHN renal": {"system": "ACHN renal"}, "SF-539 CNS": {"system": "SF-539 CNS"}, "A498 renal": {"system": "A498 renal"}, "OVCAR-3 ovarian": {"system": "OVCAR-3 ovarian"}, "RXF 393 renal": {"system": "RXF 393 renal"}, "MCF7 breast": {"system": "MCF7 breast"}, "UO-31 renal": {"system": "UO-31 renal"}}, "note": "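96-well plates; 48 h exposure; 5 concentrations. Endpoints by linear interpolation between flanking doses. Not reached: highest tested concentration assigned. Abbreviation: GI50, concentration required for 50% inhibition of growth. TGI denotes the concentration required for complete inhibition of growth.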"}
{"compound": "Oc1ccc(Cl)c(Nc2ncnc3c2cnn3CC(Cl)c2ccc(Br)cc2)c1", "note": "(centres undefined)", "values": [{"measurement": "TGI", "setting": "SNB-19 CNS", "result": 36, "unit": "µM"}, {"measurement": "GI50", "setting": "CAKI-1 renal", "result": 3.72, "unit": "µM"}, {"measurement": "TGI", "setting": "CAKI-1 renal", "result": 28.6, "unit": "µM"}, {"measurement": "GI50", "setting": "MDA-MB-435", "result": 11.9, "unit": "µM"}, {"measurement": "TGI", "setting": "MDA-MB-435", "result": 26.8, "unit": "µM"}, {"measurement": "GI50", "setting": "RPMI-8226 leukemia", "result": 17, "unit": "µM"}, {"measurement": "TGI", "setting": "RPMI-8226 leukemia", "result": 93.8, "unit": "µM"}, {"measurement": "GI50", "setting": "NCI-H23 lung", "result": 12.6, "unit": "µM"}, {"measurement": "TGI", "setting": "NCI-H23 lung", "result": 26.3, "unit": "µM"}, {"measurement": "GI50", "setting": "SK-OV-3 ovarian", "result": 7.63, "unit": "µM"}, {"measurement": "TGI", "setting": "SK-OV-3 ovarian", "result": 31.3, "unit": "µM"}, {"measurement": "GI50", "setting": "SK-MEL-5 melanoma", "result": 10.5, "unit": "µM"}, {"measurement": "TGI", "setting": "SK-MEL-5 melanoma", "result": 22.3, "unit": "µM"}, {"measurement": "GI50", "setting": "SNB-75 CNS", "result": 1.03, "unit": "µM"}, {"measurement": "TGI", "setting": "SNB-75 CNS", "result": 5.58, "unit": "µM"}, {"measurement": "GI50", "setting": "NCI/ADR-RES ovarian", "result": 7.47, "unit": "µM"}, {"measurement": "TGI", "setting": "NCI/ADR-RES ovarian", "result": 27.4, "unit": "µM"}, {"measurement": "GI50", "setting": "SF-268 CNS", "result": 6.07, "unit": "µM"}, {"measurement": "TGI", "setting": "SF-268 CNS", "result": 33.5, "unit": "µM"}, {"measurement": "GI50", "setting": "NCI-H226 lung", "result": 11.8, "unit": "µM"}, {"measurement": "TGI", "setting": "NCI-H226 lung", "result": 28.7, "unit": "µM"}, {"measurement": "GI50", "setting": "M14 melanoma", "result": 11.2, "unit": "µM"}, {"measurement": "TGI", "setting": "M14 melanoma", "result": 24.3, "unit": "µM"}, {"measurement": "GI50", "setting": "A549 NSCLC", "result": 12.1, "unit": "µM"}, {"measurement": "TGI", "setting": "A549 NSCLC", "result": 37.3, "unit": "µM"}, {"measurement": "GI50", "setting": "SW-620 colon", "result": 21.9, "unit": "µM"}, {"measurement": "TGI", "setting": "SW-620 colon", "result": 47.4, "unit": "µM"}, {"measurement": "GI50", "setting": "NCI-H460 lung", "result": 16.7, "unit": "µM"}, {"measurement": "TGI", "setting": "NCI-H460 lung", "result": 36.5, "unit": "µM"}, {"measurement": "GI50", "setting": "OVCAR-8 ovarian", "result": 7.97, "unit": "µM"}, {"measurement": "TGI", "setting": "OVCAR-8 ovarian", "result": 25.9, "unit": "µM"}, {"measurement": "GI50", "setting": "NCI-H522 lung", "result": 7.4, "unit": "µM"}, {"measurement": "TGI", "setting": "NCI-H522 lung", "result": 27.8, "unit": "µM"}, {"measurement": "GI50", "setting": "HT29 colon", "result": 13.9, "unit": "µM"}, {"measurement": "TGI", "setting": "HT29 colon", "result": 31.9, "unit": "µM"}, {"measurement": "GI50", "setting": "TK-10 renal", "result": 13.9, "unit": "µM"}, {"measurement": "TGI", "setting": "TK-10 renal", "result": 29, "unit": "µM"}, {"measurement": "GI50", "setting": "HCT-116 colon", "result": 7.89, "unit": "µM"}, {"measurement": "TGI", "setting": "HCT-116 colon", "result": 21.4, "unit": "µM"}, {"measurement": "GI50", "setting": "CCRF-CEM leukemia", "result": 13.6, "unit": "µM"}, {"measurement": "TGI", "setting": "CCRF-CEM leukemia", "result": 60.1, "unit": "µM"}, {"measurement": "GI50", "setting": "KM12 colon", "result": 19.3, "unit": "µM"}, {"measurement": "TGI", "setting": "KM12 colon", "result": 42.9, "unit": "µM"}, {"measurement": "GI50", "setting": "SR leukemia", "result": 6.67, "unit": "µM"}, {"measurement": "TGI", "setting": "SR leukemia", "result": 81.6, "unit": "µM"}, {"measurement": "GI50", "setting": "ACHN renal", "result": 2.12, "unit": "µM"}, {"measurement": "TGI", "setting": "ACHN renal", "result": 15.3, "unit": "µM"}, {"measurement": "GI50", "setting": "SF-539 CNS", "result": 4.64, "unit": "µM"}, {"measurement": "TGI", "setting": "SF-539 CNS", "result": 18.1, "unit": "µM"}, {"measurement": "GI50", "setting": "A498 renal", "result": 16.2, "unit": "µM"}, {"measurement": "TGI", "setting": "A498 renal", "result": 30.7, "unit": "µM"}, {"measurement": "GI50", "setting": "OVCAR-3 ovarian", "result": 7.99, "unit": "µM"}, {"measurement": "TGI", "setting": "OVCAR-3 ovarian", "result": 38.8, "unit": "µM"}, {"measurement": "GI50", "setting": "RXF 393 renal", "result": 0.766, "unit": "µM"}, {"measurement": "TGI", "setting": "RXF 393 renal", "result": 7.17, "unit": "µM"}, {"measurement": "GI50", "setting": "MCF7 breast", "result": 11.1, "unit": "µM"}, {"measurement": "TGI", "setting": "MCF7 breast", "result": 26.2, "unit": "µM"}, {"measurement": "GI50", "setting": "UO-31 renal", "result": 2.34, "unit": "µM"}, {"measurement": "TGI", "setting": "UO-31 renal", "result": 17, "unit": "µM"}]}
